# Patent US20070015733A1, “Aryl Phosphate Derivatives of d4T having Activity Against Resistant HIV Strains” (Parker Hughes Institute, priority 1998, published 2007)
# Like-named read-outs stand apart in the source and are kept apart here.
# Legend:
# [1] = Stability in plasma, whole blood, gastric fluid and intestinal fluid; assay type: in vitro ADME; conditions: plasma or whole blood
# Procedure: Ala-d4T-MP is stable both in plasma and in whole blood. […] This hypothesis is consistent with the formation of a significant amount of d4T after incubation of d4T-5′-[p-bromophenyl methoxyalaninyl phosphate] with a liver homogenate.
# Orally administered d4T-5′-[p-bromophenyl methoxyalaninyl phosphate] also yielded Ala-d4T-MP and d4T as the major metabolites. […] This metabolite can be absorbed in the intestine and then further metabolized to yield d4T in the blood. The tmax and t1/2 values for d4T in mice were longer when derived from orally administered d4T-5′-[p-bromophenyl methoxyalaninyl phosphate] (42.4 minutes and 99.0 minutes, respectively) than from orally administered d4T (5 minutes and 18 minutes, respectively). The tmax value is higher but the t1/2 value is lower for orally administered d4T-5′-[p-bromophenyl methoxyalaninyl phosphate] compared to intravenously administered d4T-5′-[p-bromophenyl methoxyalaninyl phosphate]. […] However, the bioavailability of d4T metabolized from d4T-5′-[p-bromophenyl methoxyalaninyl phosphate] (48%) was lower than that of orally administered d4T (98%).
# [2] = Pharmacokinetics after intravenous or oral administration; assay type: in vivo, mice; conditions: intravenous administration
# [3] = tested on: HIV-1 (HTLVIIIB) in TK-deficient CEM T-cells; assay: Inhibition of HIV-1 replication in TK-deficient CEM T-cells (p24 / RT activity); assay type: cell-based
# Procedure: (§1) Percent inhibition of viral replication was calculated by comparing the p24 and RT activity values from the test substance-treated infected cells with those from untreated infected cells. In parallel, the cytotoxicity of the compounds was examined using a microculture tetrazolium assay (MTA) of cell proliferation, as described.in the Zarling, Enrice, and Uckun articles Supra).
# (§2) Cellular Assays of Anti-HIV Activity and Cytotoxicity. […] Percent viral inhibition was calculated by comparing the RT activity values from the test substance-treated infected cells with RT values from untreated infected cells (i.e., virus controls).
# HIV-1 (strain: HTLVIIIB) = assay: microbe, parasite or virus in culture; assay type: cell-based; conditions: Human immunodeficiency virus 1, read-out: PBMNC IC50 [RT], PBMNC; unit not given in Table 5 (0.04 = 40 nM)
# Procedure: as §1, §2
# [4] = tested on: AZT- and NNI-resistant HIV-1 (strain: RTMDR-1); assay: Inhibition of RTMDR-1 (HIV-MDR) replication in PBMNC (RT activity); assay type: cell-based
# Procedure: as §2
# [5] = Microculture tetrazolium assay (MTA) cytotoxicity in CEM cells; conditions: human
# Procedure: as §1, §2
# [6] = Microculture tetrazolium assay (MTA) cytotoxicity in PBMNC; conditions: human
# Procedure: as §1, §2
# (§3) Antiviral susceptibility assays. Phenotypic drug susceptibility studies of HIV-1 isolates and strains were performed by measuring the production of the p24 gag protein in peripheral blood mononuclear cells (PBMC) from seronegative healthy volunteers in the presence of increasing concentrations of the anti-HIV agent using the quantitative Coulter HIV-1 p24 antigen ezyme immunoassay (EIA) and HIV-1 p24 Antigen Kinetic Standard (Beckman Coulter), as previously described (Uckun, 1998, Antimicrobial Agents and Chemotherapy 37(4): 835-38). Informed consent was obtained from the blood donors according to DHHS guidelines using consent forms approved by the Institutional Review Board. In brief, PBMC were cultured for 72 h in RPMI 1640 medium (Gibco) supplemented with 20% (vol/vol) heat-inactivated fetal bovine serum, 5% human interleukin-2 (Zeptometrix), 2 mM L-glutamine, 25 mM HEPES, 2 g/L NaHCO3, 100 U/ml penicillin/streptomycin (Gibco), 50 μg/ml gentamicin (Gibco), and 5 μg/ml phytohemagglutinin-P (PHA-P) (Sigma) for 24-72 hours prior to exposure to HIV at a multiplicity of infection of 0.001-0.1 during a 1-h adsorbtion period at 37±1° C. in a humidified 5-7% CO2 atmosphere. Subsequently, cells were cultured in 96-well microtiter plates (100 μl/well; 2×10^6 cells/ml, triplicate wells) in the presence of the anti-HIV agents at 6-7 different concentrations ranging from 0.0001 μM to 100 μM, and 25 μL aliquots of culture supernatants were removed from the wells on day 6 after infection for p24 EIA, as previously described (Uckun, 1998, Antimicrobial Agents and Chemotherapy, 37(4):835-38). Controls included uninfected and untreated cells (background control) and infected but untreated (virus control) cells. The p24 EIA utilizes a murine monoclonal antibody to HIV core protein used to coat microwell strips to which the antigen present in the test culture supernatant samples binds. Percent inhibition of viral replication was calculated by comparing the p24 values from the test substance-treated infected cells with p24 values from untreated infected cells (i.e., virus controls). The IC50 values were determined using the Statview statistics program (SAS Institute, Inc.). In parallel, the effects of various treatments on cell viability were also examined as previously described (Uckun, 1998, Antimicrobial Agents and Chemotherapy, 42:383-388). In brief, noninfected PBMC were treated with each compound for 5 days under identical experimental conditions. A microculture tetrazolium assay (MTA) was performed to quantitate cellular proliferation (Uckun, 1998, Antimicrobial Agents and Chemotherapy, 42:383-388).
# In parallel, the cytotoxicity of the compounds was examined using a microculture tetrazolium assay (MTA) of cell proliferation, as described (in the Zarling, Enrice, and Uckun articles Supra).
# HIV-2 (Strain: CBL-20) = assay: Inhibition of HIV-2 replication in PBMNC (RT activity); assay type: cell-based
# Procedure: (P-AZT) and with AZT. The incubation and analysis methods used were as described above for Example 3.
# as §2
# HIV-1 HTLVIIIB = assay: microbe, parasite or virus in culture
# Procedure: In vitro assays of anti-HIV-1 activity. Normal human peripheral blood mononuclear cells (PBMNC) from HIV-negative donors were cultured 72 hours in RPMI 1640 supplemented with 20% (v/v) heat-inactivated fetal bovine serum (FBS), 3% interleukin-2, 2 mM L-glutamine, 25 mM HEPES, 2 g/L NaHCO3, […], and […] prior to exposure to HIV-1 at a multiplicity of infection (MOI) of 0.1 during a 1 hour adsorption period at 37° C. in a humidified 5% CO2 atmosphere. Subsequently, cells were cultured in 96-well microtiter plates ([…]; 2×10^6 cells/mL) in the presence of various concentrations of d4T phosphoramidates and aliquots of culture supernatants were removed from the wells on the 7th day after infection for p24 antigen assays, as previously described (Uckun et al., 1998, Antimicrobial Agents and Chem., 42(2):383-388). The applied p24 enzyme immunoassay (EIA) was the unmodified kinetic assay commercially available from Coulter Corporation/Immunotech, Inc. (Westbrooke, Me.), which utilizes a murine mAb to HIV core protein coated onto microwell strips to which the antigen present in the test culture supernatant samples binds. Percent viral inhibition was calculated by comparing the p24 values from untreated infected cells (i.e., virus controls).
# The anti-HIV activity of the compounds was examined by evaluating their ability to inhibit HIV replication in peripheral blood mononuclear cells using previously described procedures (Uckun et al., 1998, Antimicrobial Agents and Chem., 42(2):383-388). Percent inhibition of viral replication was calculated by comparing the p24 antigen levels from the test substance-treated infected cells with those from vehicle-treated infected cells.
# as §3, with “Inc.).” for “Inc.). In parallel, the effects of various treatments on cell viability were also examined as previously described (Uckun, 1998, Antimicrobial Agents and Chemotherapy, 42:383-388). In brief, noninfected PBMC were treated with each compound for 5 days under identical experimental conditions. A microculture tetrazolium assay (MTA) was performed to quantitate cellular proliferation (Uckun, 1998, Antimicrobial Agents and Chemotherapy, 42:383-388).”
# [7] = Human immunodeficiency virus 1, PBMC
smiles,measurement,setting,value
"Cc1cn([C@H]2C=C[C@@H](COP(=O)(O)NC(C)C(=O)O)O2)c(=O)[nH]c1=O (stereo partly drawn) [Ala-d4T-MP, alaninyl-d4T-monophosphate]",stability in plasma and whole blood,[1],stable
same,elimination half-life (t1/2) of the administered substance,[2],28.5 min
"COC(=O)C(C)NP(=O)(OC[C@H]1O[C@@H](n2cc(C)c(=O)[nH]c2=O)CC1N=[N+]=[N-])Oc1ccc(Br)cc1 (stereo partly drawn) [Compound 5c, AZT-5′-(para-bromophenylmethoxyalaninyl phosphate)]",IC50,"[3]; Human immunodeficiency virus 1, CCRF-CEM, TK-deficient CEM cells, read-out: IC50 value for inhibition of RT activity",0.04 µM
same,IC50,"[3]; Human immunodeficiency virus 1, T-cell, TK-deficient CEM T-cells, Table 5, read-out: CEM IC50 [RT]",0.04 µM
same,times more effective than AZT in inhibiting HIV replication,[3]; TK-deficient CEM cells,5 times
same,IC50,HIV-1 (strain: HTLVIIIB),0.004 µM
same,IC50,"[4]; Human immunodeficiency virus 1, read-out: HIV-MDR IC50 [RT]",1.5 µM
same,IC50,"[4]; Human immunodeficiency virus 1, read-out: IC50 against HIV-MDR",1.5 µM
same,IC50,"[4]; Human immunodeficiency virus 1, read-out: RTMDR-1 IC50 [RT]",1.5 µM
same,antiviral activity against RTMDR-1 (in words),[4]; PBMNC,not effective
same,IC50,[5],> 10 µM
same,IC50 at 5 days,[6],> 10 µM
same,IC50,"HIV-2 (Strain: CBL-20); Human immunodeficiency virus 2, read-out: HIV-2 IC50 [RT]",3.9 µM
same,antiviral activity against HIV-2 (in words),HIV-2 (Strain: CBL-20); PBMNC,not effective
Cc1c(O)cccc1C(=O)N[C@@H](CSc1ccccc1)[C@H](O)CN1C[C@H]2CCCC[C@H]2C[C@H]1C(=O)NC(C)(C)C [nelfinavir],SI(CC50/IC50),HIV-1 HTLVIIIB,583
same,IC50,HIV-1 HTLVIIIB; [7],0.006 ± 0.003 µM
same,IC90,HIV-1 HTLVIIIB; [7],0.084 ± 0.038 µM
same,CC50 at 5 days,[6],3.5 ± 1.4 µM
